Laboratory results published in paper PMC12749626, “Expediting hit-to-lead progression in drug discovery through reaction prediction and multi-dimensional optimization” (Nature Communications, 2025).

Key:
Details in all cases: 10 uM; n=2
SEROTONIN TRANSPORTER = SEROTONIN TRANSPORTER (Homo sapiens, UniProt P31645)
GLUC[…]. = GLUC[…]. (Homo sapiens, UniProt P04150)
5HT2A = 5HT2A (Homo sapiens, UniProt P28223)
5HT2B = 5HT2B (Homo sapiens, UniProt P41595)
Chain of 5HT2B (P41595 whole entry): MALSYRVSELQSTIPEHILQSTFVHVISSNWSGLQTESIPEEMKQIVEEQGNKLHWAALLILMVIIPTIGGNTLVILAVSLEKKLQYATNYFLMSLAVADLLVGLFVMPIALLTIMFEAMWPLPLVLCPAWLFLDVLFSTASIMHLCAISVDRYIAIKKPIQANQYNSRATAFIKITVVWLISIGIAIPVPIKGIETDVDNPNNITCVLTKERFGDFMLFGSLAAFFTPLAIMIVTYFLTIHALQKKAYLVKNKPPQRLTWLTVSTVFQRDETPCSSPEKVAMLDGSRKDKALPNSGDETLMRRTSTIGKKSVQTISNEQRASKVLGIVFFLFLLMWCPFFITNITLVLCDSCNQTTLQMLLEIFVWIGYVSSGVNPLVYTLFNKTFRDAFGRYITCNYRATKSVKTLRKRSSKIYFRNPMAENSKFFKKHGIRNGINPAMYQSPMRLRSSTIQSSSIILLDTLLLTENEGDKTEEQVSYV

Chain of GLUC[…]. (P04150 whole entry): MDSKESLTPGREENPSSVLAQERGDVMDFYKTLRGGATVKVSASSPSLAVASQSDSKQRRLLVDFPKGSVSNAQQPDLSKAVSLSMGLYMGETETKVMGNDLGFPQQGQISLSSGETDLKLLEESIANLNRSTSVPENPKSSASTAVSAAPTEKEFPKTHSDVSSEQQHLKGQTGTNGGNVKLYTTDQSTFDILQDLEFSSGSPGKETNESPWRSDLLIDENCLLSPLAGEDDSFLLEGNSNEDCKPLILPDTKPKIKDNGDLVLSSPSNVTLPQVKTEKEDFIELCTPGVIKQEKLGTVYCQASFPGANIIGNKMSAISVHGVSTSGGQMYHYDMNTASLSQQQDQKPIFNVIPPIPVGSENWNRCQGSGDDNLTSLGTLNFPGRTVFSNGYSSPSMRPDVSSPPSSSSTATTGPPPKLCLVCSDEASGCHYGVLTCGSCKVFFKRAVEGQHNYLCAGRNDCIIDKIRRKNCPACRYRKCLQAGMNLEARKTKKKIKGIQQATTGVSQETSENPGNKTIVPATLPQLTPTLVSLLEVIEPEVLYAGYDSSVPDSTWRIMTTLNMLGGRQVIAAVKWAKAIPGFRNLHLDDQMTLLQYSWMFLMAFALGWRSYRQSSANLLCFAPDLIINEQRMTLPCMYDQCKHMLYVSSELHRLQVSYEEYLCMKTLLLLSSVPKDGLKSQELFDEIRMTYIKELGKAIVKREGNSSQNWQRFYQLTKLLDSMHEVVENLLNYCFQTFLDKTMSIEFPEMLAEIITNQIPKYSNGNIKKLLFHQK
Chain of SEROTONIN TRANSPORTER (P31645 whole entry): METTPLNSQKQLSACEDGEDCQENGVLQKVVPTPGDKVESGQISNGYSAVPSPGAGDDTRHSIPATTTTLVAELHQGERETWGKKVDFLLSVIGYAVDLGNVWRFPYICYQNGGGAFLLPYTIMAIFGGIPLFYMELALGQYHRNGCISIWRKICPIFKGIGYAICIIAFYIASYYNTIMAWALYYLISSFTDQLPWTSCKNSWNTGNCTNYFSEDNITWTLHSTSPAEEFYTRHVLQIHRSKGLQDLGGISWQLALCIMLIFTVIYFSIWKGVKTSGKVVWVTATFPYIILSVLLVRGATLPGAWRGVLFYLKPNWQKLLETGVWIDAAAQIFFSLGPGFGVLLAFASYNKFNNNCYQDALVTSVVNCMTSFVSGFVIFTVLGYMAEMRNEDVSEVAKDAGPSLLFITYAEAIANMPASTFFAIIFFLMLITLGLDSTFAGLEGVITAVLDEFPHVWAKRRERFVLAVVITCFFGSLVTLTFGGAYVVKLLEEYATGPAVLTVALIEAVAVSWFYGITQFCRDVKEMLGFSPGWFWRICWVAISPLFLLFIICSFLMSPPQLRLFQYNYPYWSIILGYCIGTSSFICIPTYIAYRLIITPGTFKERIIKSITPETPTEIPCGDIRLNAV
Chain of 5HT2A (P28223 whole entry): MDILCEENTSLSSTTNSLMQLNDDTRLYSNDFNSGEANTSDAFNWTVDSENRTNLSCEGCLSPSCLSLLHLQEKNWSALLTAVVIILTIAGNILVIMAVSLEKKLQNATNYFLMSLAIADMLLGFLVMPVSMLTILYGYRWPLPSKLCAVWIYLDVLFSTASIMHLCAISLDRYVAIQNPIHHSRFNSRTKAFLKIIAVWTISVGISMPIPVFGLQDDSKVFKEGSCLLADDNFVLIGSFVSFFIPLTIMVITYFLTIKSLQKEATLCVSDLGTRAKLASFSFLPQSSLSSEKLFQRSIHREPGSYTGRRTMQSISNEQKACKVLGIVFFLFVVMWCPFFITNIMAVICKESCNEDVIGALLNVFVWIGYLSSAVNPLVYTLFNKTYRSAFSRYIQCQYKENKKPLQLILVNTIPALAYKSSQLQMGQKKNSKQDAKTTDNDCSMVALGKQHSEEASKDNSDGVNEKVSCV

O=C(c1ccc2nc(-c3cnccc3C3(C4CCC4)CC3)oc2c1)N1CCN(c2nc3nc(Cl)ccc3o2)CC1 [Compound 27]
SEROTONIN TRANSPORTER percent activity or inhibition compared to the assay reference (SEROTONIN TRANSPORTER): 1%
GLUC[…]. percent activity or inhibition compared to the assay reference (GLUC[…].): 5%
5HT2A percent activity or inhibition compared to the assay reference (5HT2A): 12%
5HT2B percent activity or inhibition compared to the assay reference (5HT2B): 10%
